{"source": "patent US20070276034A1", "about": "“Compounds, compositions and methods for the treatment of synucleinopathies” (priority 2002, published 2007)", "key": {"[1]": {"tested_on": "BE-M17 human neuroblastoma cells overexpressing A53T α-synuclein", "experiment": "Thioflavin S aggregation assay in rotenone-treated cells", "assay_type": "cell-based", "from_the_text": "(§1) Therefore, to test the therapeutic potential of the compounds, two cell-based assays were utilized. In both assays, rotenone is used to induce mitochondrial oxidative stress and α-synuclein aggregation. The first assay utilizes the binding of the fluorescent dye thioflavin S to structures with high β-sheet content including α-synuclein fibrils. Therefore, quantitative assessment of the extent of thioflavin S-positive staining of fixed cells is used to test the ability of the compounds to decrease the amount of α-synuclein aggregates. In the second assay, cell viability is assessed using the XTT Cytotoxicity assay, which is dependent on intact, functional mitochondria in live cells. Thus, the XTT Cytotoxicity assay is used to test the ability of the compounds to ameliorate the mitochondrial toxicity and resulting loss of viability associated with the accumulation of α-synuclein aggregates. Phrased another way, the XTT Cytotoxicity assay is used to gauge the compounds neuroprotective efficacy. These studies are presented in the following examples.\n(§2) BE-M17 human neuroblastoma cells stably transfected with A53T-mutant human α-synuclein were obtained. Cell culture reagents were obtained from Gibco/Invitrogen, and cells were grown in OPTIMEM supplemented with 10% FBS, Penicillin (100 units/mil)-Streptomycin (100 μg/ml) and 500 μg/ml G418 as previously described (Ostrerova-Golts et al., J. Neurosci., 20:6048-6054, 2000).\nThioflavin S is commonly used to detect amyloid-containing structures in situ, including in brain tissue (Vallet et al., Acta Neuropathol., 83:170-178, 1992), and cultured cells (Ostrerova-Golts et al., J. Neurosci., 20:6048-6054, 2000), whereas thioflavin T is often used as an in vitro reagent to analyze the aggregation of soluble amyloid proteins into fibrils enriched in β-pleated sheet structures (LeVine III, Prot. Sci., 2:404-410, 1993). Therefore, Thioflavin S histochemistry was used on cultured cells to detect aggregates containing a high degree of […] structures that formed in response to oxidative stress-inducing agents (in this case rotenone) as previously described, with minor modifications (Ostrerova-Golts et al., J. Neurosci, 20:6048-6054, 2000). Briefly, for these studies, cells were grown on Poly-D-Lysine coated glass slide chambers at approximately 3×10^4 cells/cm^2. After 24 hours, cells were treated with 500 nM, 1 μM or 5 μM rotenone (Sigma) or vehicle (0.05% DMSO) as indicated. Immediately after rotenone (or vehicle) addition, compounds were added at the indicated concentration, or cell culture media only (no compound) in the presence of rotenone was added. Identical treatments were repeated after 48 hours. After an additional 48 hours, cells were fixed for 25 minutes in 3% paraformaldehyde. After a PBS wash, the cells were incubated with 0.015% thioflavin S in 50% ethanol for 25 minutes, washed twice for four minutes in 50% ethanol and twice for five minutes in deionized water and then mounted using an aqueous-based mountant designed to protect against photobleaching. Aggregates that bind to thioflavin S were detected with a fluorescent microscope using a High Q FITC filter set (480 to 535 nm bandwidth) and a 20× objective lens unless otherwise indicated. Between 8 and 16 representative images per condition were selected, imaged and processed by an experimenter who was blinded to treatment conditions. To assess the amount of thioflavin S-positive aggregates, the total area per field covered by thioflavin S-positive inclusions was determined. […] Spurious, non-cell associated fluorescence was manually removed. Unless indicated otherwise, data represent group means ±SEM. Statistical analyses were performed with GraphPad Prism (GraphPad Inc). Differences between means (two samples) were assessed by the […]. Differences among multiple means were assessed by one-factor ANOVA followed by Tukey's multiple comparison test."}, "[2]": {"molecular_target": "T1, monomeric Aβ 1-42 (Homo sapiens, UniProt P05067)", "T1 construct": "purchased Bachem Inc", "T1 sequence (P05067 672-713)": "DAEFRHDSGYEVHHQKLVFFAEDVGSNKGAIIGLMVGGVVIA", "experiment": "SDS-PAGE/Western blot of Aβ 1-42 after incubation with compounds", "assay_type": "biochemical", "details": "25 μM pre-fibrillized Aβ 1-42, 37° C., 3 days, 0.2 μm filtrate, antibody 6E10", "experimental": "In this latter study, triplicate samples of pre-fibrillized Aβ 1-42 (25 μM) was incubated at 37° C. for 3 days, alone or in the presence of the compounds or EDTA. Five micrograms of each sample was then filtered through a 0.2 μm filter. Protein recovered from the filtrate was then loaded, and ran on a 10-20% Tris-Tricine SDS-PAGE, blotted to nitrocellulose and detected using an Aβ-antibody (clone 6E10; Senetek)."}, "[3]": {"tested_on": "A53T α-synuclein-expressing BE-M17 cells", "experiment": "XTT Cytotoxicity assay - protection against rotenone-induced cytotoxicity", "assay_type": "cell-based", "from_the_text": "as §1, §2\nResearch has shown that the accumulation of α-synuclein fibrils in Lewy bodies contributes mechanistically to the degradation of neurons in Parkinson's disease and related disorders (Polymeropoulos et al., Science 276:2045-2047, 1997; Kruger et al., Nature Genet. 18:106-108, 1998). Here, the XTT Cytotoxicity assay (hereafter referred to as the XTT assay) was used to measure the ability of test compounds to protect against rotenone-induced cytotoxicity (neuroprotective ability). The assay is based on the principle that conversion of the yellow tetrazolium salt XTT to form an orange formazan dye (that absorbs light around 490 nm) occurs only in metabolically active, viable cells. Therefore, light absorbance at 490 nm is proportional to cell viability. For this assay, cells were plated in 96 well tissue culture dishes at 10^4 cells per well. After 24 hours, cells were treated with 500 nM or 2 μM rotenone, or vehicle (0.05% DMSO) as indicated. Immediately after rotenone addition, compounds were added at the indicated concentration. […] Untreated cells received cell culture media only (no compound, with or without rotenone). After 40-44 hours of treatment, conditioned media was removed and replaced with 100 μl fresh media and 50 μl XTT labeling reaction mixture according to the manufacturer's recommendations. Four to five hours later, the absorbance at 490 nm was measured and corrected for absorbance at the 700 nm reference wavelength. […] Percent inhibition of cell death was calculated as the proportion of the rotenone-induced absorbance (viability) decrease that was eliminated by test compound treatment."}, "[4]": {"details": "1 μM rotenone, 1 μg/ml compound"}, "[5]": {"details": "50 μg/ml compound, at both rotenone doses (500 nM or 2 μM)"}, "[6]": {"details": "5 μM rotenone, 1 μg/ml compound"}, "[7]": {"details": "5 μg/ml compound, rotenone 500 nM or 2 μM"}}, "note": "Read-outs that look alike come from different tables or passages of the source.", "data": [{"molecule": "Oc1ccc(Cc2ccc(O)c(O)c2)cc1O", "note": "[Compound 3, 3,4,3′,4′-tetrahydroxydiphenylmethane]", "values": [{"measurement": "reduction of rotenone-induced thioflavin S-positive aggregates", "setting": "[1]; [4]", "result": 90, "unit": "%"}, {"measurement": "reduction of rotenone-induced thioflavin S-positive aggregates", "setting": "[1]; 1 μM rotenone, 5 μg/ml compound", "result": 90, "unit": "%"}]}, {"molecule": "O=C(NCc1ccc(O)c(O)c1)C(=Cc1ccc(O)c(O)c1)NC(=O)c1ccc(O)c(O)c1", "note": "[Compound 21, α-(3,4-dihydroxybenzamido)-3,4-dihydroxycinnamic acid 3,4-dihydroxybenzyl amide]", "values": [{"measurement": "detection of Aβ 1-42 monomers (~4 kilodalton band) on Western blot", "setting": "[2]", "result": "not detected"}, {"measurement": "inhibition of rotenone-induced loss of viability", "setting": "[3]; [5]", "result": "30-40%"}, {"measurement": "reduction of rotenone-induced thioflavin S-positive aggregates", "setting": "[1]; [6]", "result": 84, "unit": "%"}]}, {"molecule": "O=C(Nc1ccc(O)c(O)c1)c1ccc(O)c(O)c1", "note": "[Compound 51, 3,4-dihydroxybenzoic acid 3,4-dihydroxyanilide]", "values": [{"measurement": "detection of Aβ 1-42 monomers (~4 kilodalton band) on Western blot", "setting": "[2]", "result": "not detected"}, {"measurement": "optimal therapeutic dose in XTT assay", "setting": "[3]; 500 nM rotenone", "result": "~25", "unit": "µg/mL"}, {"measurement": "inhibition of rotenone-induced loss of viability", "setting": "[3]; [5]", "result": "25-30%"}, {"measurement": "inhibition at 10 µg/mL", "setting": "[3]; Homo sapiens, 10 μg/ml compound, 500 nM rotenone, read-out: inhibition of rotenone-induced toxicity", "result": 45, "unit": "%"}, {"measurement": "inhibition at 25 µg/mL", "setting": "[3]; Homo sapiens, 25 μg/ml compound, 500 nM rotenone, read-out: inhibition of rotenone-induced toxicity", "result": 55, "unit": "%"}, {"measurement": "reduction of rotenone-induced thioflavin S-positive aggregates", "setting": "[1]; 1 μM rotenone, 500 ng/ml compound", "result": 87, "unit": "%"}, {"measurement": "reduction of rotenone-induced thioflavin S-positive aggregates", "setting": "[1]; [4]", "result": 91, "unit": "%"}]}, {"molecule": "O=C(Nc1ccc(O)c(O)c1)C(=O)Nc1ccc(O)c(O)c1", "note": "[Compound 63, oxalic acid bis(3,4-dihydroxyanilide)]", "values": [{"measurement": "inhibition of rotenone-induced loss of viability", "setting": "[3]; [7]", "result": "10-13%"}, {"measurement": "inhibition at 50 µg/mL", "setting": "[3]; Homo sapiens, 50 μg/ml compound, 500 nM rotenone, read-out: inhibition of rotenone-induced toxicity", "result": "~55", "unit": "%"}, {"measurement": "inhibition at 50 µg/mL", "setting": "[3]; Homo sapiens, 50 μg/ml compound, 2 μM rotenone, read-out: inhibition of rotenone-induced toxicity", "result": "~35", "unit": "%"}]}, {"molecule": "O=C(Nc1ccc(O)c(O)c1)Nc1ccc(O)c(O)c1", "note": "[Compound 76, 1,3-bis(3,4-dihydroxyphenyl)urea]", "values": [{"measurement": "detection of Aβ 1-42 monomers (~4 kilodalton band) on Western blot", "setting": "[2]", "result": "not detected"}, {"measurement": "inhibition of rotenone-induced loss of viability", "setting": "[3]; [7]", "result": "approximately 18%"}, {"measurement": "reduction of rotenone-induced thioflavin S-positive aggregates", "setting": "[1]; 5 μM rotenone, 500 ng/ml compound", "result": 73, "unit": "%"}, {"measurement": "reduction of rotenone-induced thioflavin S-positive aggregates", "setting": "[1]; [6]", "result": 80, "unit": "%"}, {"measurement": "reduction of rotenone-induced thioflavin S-positive aggregates", "setting": "[1]; 5 μM rotenone, 5 μg/ml compound", "result": 91, "unit": "%"}]}, {"molecule": "O=C(O)CN(CCN(CC(=O)O)CC(=O)O)CC(=O)O", "note": "[EDTA, reference compound]", "values": [{"measurement": "detection of Aβ 1-42 monomers (~4 kilodalton band) on Western blot", "setting": "[2]", "result": "detected as a ˜4 kilodalton band"}]}]}
